Data set [1] is described as follows: ASSAY (IV) determination of solubility. It counts as physicochemical. The method in brief:
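Samples of polypeptide, prepared from a water stock at […] and diluted 1:1 into 100 mM buffers spanning pH 3.0 to 8.0, stood 18 hours at room temperature. Polypeptide concentration was then determined by UPLC following centrifugation.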

The target in data set [2] is T1, rat calcitonin receptor (Rattus norvegicus, UniProt P32214).
T1 construct: expressed in transfected cells; host or cells: BHK tk'ts 13 (transient, FuGENE 6), membranes
T1 sequence (P32214 25-479 isoform P32214-2 limits assumed): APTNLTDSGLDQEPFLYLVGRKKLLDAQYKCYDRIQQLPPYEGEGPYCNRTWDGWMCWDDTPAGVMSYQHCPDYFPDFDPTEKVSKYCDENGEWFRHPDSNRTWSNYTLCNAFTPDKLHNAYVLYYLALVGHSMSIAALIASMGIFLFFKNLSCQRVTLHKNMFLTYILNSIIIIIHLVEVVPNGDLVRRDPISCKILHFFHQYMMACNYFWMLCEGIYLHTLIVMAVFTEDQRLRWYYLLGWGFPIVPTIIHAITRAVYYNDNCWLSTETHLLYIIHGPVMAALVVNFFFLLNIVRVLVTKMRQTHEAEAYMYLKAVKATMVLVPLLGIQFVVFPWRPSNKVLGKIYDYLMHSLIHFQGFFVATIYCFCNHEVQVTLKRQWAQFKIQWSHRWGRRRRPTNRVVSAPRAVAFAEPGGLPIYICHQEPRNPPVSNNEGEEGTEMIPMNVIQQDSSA
Kind of data set: ASSAY (VIII) binding to the rat calcitonin receptor. Conditions: Table 7, read-out: rCTR bind IC50. The method in brief:
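Cell membranes for binding came from BHK tk′ts 13 cells harvested approximately 48 hours after transient transfection with the rat receptor.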

For data set [3], the target named is T2, human amylin receptor (membranes from Amylin 3(a)/CRE-luc cells) (Homo sapiens, UniProt O60896+P30988).
T2 construct: expressed in transfected cells
T2 sequence (P30988 25-474): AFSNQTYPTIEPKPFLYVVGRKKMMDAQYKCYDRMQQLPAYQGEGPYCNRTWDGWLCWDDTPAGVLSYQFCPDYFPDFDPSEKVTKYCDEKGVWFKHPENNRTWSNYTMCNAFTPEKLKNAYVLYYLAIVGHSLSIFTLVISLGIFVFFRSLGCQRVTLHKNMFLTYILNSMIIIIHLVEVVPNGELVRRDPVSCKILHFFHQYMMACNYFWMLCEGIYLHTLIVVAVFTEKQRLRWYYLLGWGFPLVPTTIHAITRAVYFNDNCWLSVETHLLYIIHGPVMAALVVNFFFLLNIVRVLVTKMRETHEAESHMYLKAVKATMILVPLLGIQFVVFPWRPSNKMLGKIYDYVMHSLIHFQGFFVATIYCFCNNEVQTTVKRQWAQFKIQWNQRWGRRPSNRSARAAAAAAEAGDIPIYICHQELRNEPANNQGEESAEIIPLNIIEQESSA
T2 sequence (O60896 24-148 partner): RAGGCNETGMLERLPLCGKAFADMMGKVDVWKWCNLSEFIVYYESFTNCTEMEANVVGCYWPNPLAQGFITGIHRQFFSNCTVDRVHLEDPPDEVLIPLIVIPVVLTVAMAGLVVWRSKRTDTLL
Put plainly: ASSAY (V) binding to the human amylin receptor (SPA, 125I-rat amylin).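 For all read-outs here: competition binding of cell membranes (35 ng/µL) mixed with SPA beads in 384-well plates at 40 µL total volume, read by scintillation counting.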 The following applies: for IC50: Table 4, read-out: hAmylin-R bind IC50.

The mark [4] stands for this setting: bistrispropane buffer, pH 6.5, read-out: Solubility pH 6.5 Concentration.
Setting [5] is: bistrispropane buffer, pH 7.5, read-out: Solubility pH 7.5 Concentration.
[6] abbreviates: bistrispropane buffer, pH 6.0, read-out: Solubility pH 6.0 Concentration.
Where [7] appears, read: bistrispropane buffer, pH 7.0, read-out: Solubility pH 7.0 Concentration.
[8] abbreviates: bistrispropane buffer, pH 8.0, read-out: Solubility pH 8.0 Concentration.
The mark [9] stands for this setting: glycylglycine buffer, pH 3.0, read-out: Solubility pH 3.0 Concentration.
Setting [10] is: glycylglycine buffer, pH 4.0, read-out: Solubility pH 4.0 Concentration.
Setting [11] is: glycylglycine buffer, pH 5.0, read-out: Solubility pH 5.0 Concentration.
The mark [12] stands for this setting: Table 5, selectivity, hCTR bind IC50 / hAmylin-R bind IC50.
The mark [13] stands for this setting: Table 7, human binding selectivity, included for comparison.
The mark [14] stands for this setting: Table 7a (preferred compounds), human binding selectivity, included for comparison.
Where [15] appears, read: Table 5a, selectivity, hCTR bind IC50 / hAmylin-R bind IC50.
Where [16] appears, read: ratio of human calcitonin receptor binding IC50 to human amylin receptor binding IC50.

Converted amounts (≈) assume the structure as drawn. Read-outs that look alike come from different tables or passages of the source. Numbered stars: 1 amine (or outer) side, 2 acyl side, 3 side chain; on linkers, the order of the positions; unused ones are H or OH. Bridge positions count the residues as written; N and C are the ends. Side chains are listed from the residue outwards. Peptide text beside a SMILES is read from it. * marks the point of attachment. C20 diacid = O=C(O)CCCCCCCCCCCCCCCCCCC(=O)*; γGlu = O=C(O)[C@H](CCC(=O)[*:2])N[*:1]

From patent publication US9023789B2, “Amylin analogs and pharmaceutical compositions thereof” (Novo Nordisk A/S, priority 2012, dated 2015) come the findings set out here.

One may read the IC50 as the point on the concentration scale where inhibition reaches its midpoint. For the compound `CC[C@H](C)[C@H](NC(=O)[C@H](C)NC(=O)CNC(=O)[C@H](Cc1ccccc1)NC(=O)[C@H](CC(N)=O)NC(=O)[C@@H]1CCCN1C(=O)[C@H](CO)NC(=O)[C@H](CO)NC(=O)[C@H](Cc1c[nH]cn1)NC(=O)[C@H](CCCNC(=N)N)NC(=O)[C@H](CC(C)C)NC(=O)[C@H](Cc1ccccc1)NC(=O)[C@H](CCC(=O)O)NC(=O)[C@H](C)NC(=O)[C@H](CC(C)C)NC(=O)[C@H](CCCNC(=N)N)NC(=O)[C@H](CCC(N)=O)NC(=O)[C@@H](NC(=O)[C@H](C)NC(=O)[C@@H]1CSSC[C@H](NC(=O)[C@H](CCCCN)NC(=O)CC[C@H](NC(=O)CCCCCCCCCCCCCCCCCCC(=O)O)C(=O)O)C(=O)N[C@@H](CC(N)=O)C(=O)N[C@@H]([C@@H](C)O)C(=O)N[C@@H](C)C(=O)N[C@@H]([C@@H](C)O)C(=O)N1)[C@@H](C)O)C(=O)N1CCC[C@H]1C(=O)N[C@@H](CO)C(=O)N1CCC[C@H]1C(=O)N[C@H](C(=O)N[C@@H](CC(N)=O)C(=O)N[C@H](C(=O)NCC(=O)N[C@@H](CO)C(=O)N[C@@H](CC(N)=O)C(=O)N[C@H](C(=O)N[C@@H](Cc1ccc(O)cc1)C(N)=O)[C@@H](C)O)C(C)C)[C@@H](C)O` [Example 37] ({C20 diacid-γGlu}-KCNTATCATQRLAEFLRHSSPNFGAIPSPTNVGSNTY-NH2; disulfide 2-7 (inferred)), the solubility at 18 h in data set [1] (setting [4]), in data set [1] (setting [5]), in data set [1] (setting [6]), in data set [1] (setting [7]), in data set [1] (setting [8]) and in data set [1] (setting [9]) was no less than 200 µM in each case. The solubility at 18 h in data set [1] (setting [10]) and in data set [1] (setting [11]) was no less than 200 µM each time. In addition, the 50% inhibitory concentration (IC50) was found to be 7.35 nM in data set [2] and 0.97 nM in data set [3]. Moreover, the “Ratio hCT/hAmylin binding” value in data set [3] (setting [12]), in data set [3] (setting [13]) and in data set [3] (setting [14]) was 2.3 each time.
As to `CC[C@H](C)[C@H](NC(=O)[C@H](C)NC(=O)CNC(=O)[C@H](Cc1ccccc1)NC(=O)[C@H](CC(N)=O)NC(=O)[C@@H]1CCCN1C(=O)[C@H](CO)NC(=O)[C@H](CO)NC(=O)[C@H](Cc1c[nH]cn1)NC(=O)[C@H](CCCNC(=N)N)NC(=O)[C@H](CC(C)C)NC(=O)[C@H](Cc1ccccc1)NC(=O)[C@H](CCC(=O)O)NC(=O)[C@H](C)NC(=O)[C@H](CC(C)C)NC(=O)[C@H](CCCNC(=N)N)NC(=O)[C@H](CCC(N)=O)NC(=O)[C@@H](NC(=O)[C@H](C)NC(=O)[C@@H]1CSSC[C@H](NC(=O)[C@H](CCCCN)NC(=O)CC[C@H](NC(=O)CCCCCCCCCCCCCCCCCCC(=O)O)C(=O)O)C(=O)N[C@@H](CC(N)=O)C(=O)N[C@@H]([C@@H](C)O)C(=O)N[C@@H](C)C(=O)N[C@@H]([C@@H](C)O)C(=O)N1)[C@@H](C)O)C(=O)N1CCC[C@H]1C(=O)N[C@@H](CO)C(=O)N[C@@H](CO)C(=O)N[C@H](C(=O)N[C@@H](CC(N)=O)C(=O)N[C@H](C(=O)NCC(=O)N[C@@H](Cc1c[nH]cn1)C(=O)N[C@@H](CC(N)=O)C(=O)N[C@H](C(=O)N[C@@H](Cc1ccc(O)cc1)C(N)=O)[C@@H](C)O)C(C)C)[C@@H](C)O` [Example 17] ({C20 diacid-γGlu}-KCNTATCATQRLAEFLRHSSPNFGAIPSSTNVGHNTY-NH2; disulfide 2-7 (inferred)), the solubility at 18 h was no less than 200 µM in data set [1] (setting [4]); 159 µM (≈ 707 µg/mL) in data set [1] (setting [5]); no less than 200 µM in data set [1] (setting [6]); no less than 200 µM in data set [1] (setting [7]); 154 µM (≈ 685 µg/mL) in data set [1] (setting [8]); no less than 200 µM in data set [1] (setting [9]). Further, the solubility at 18 h in data set [1] (setting [10]) and in data set [1] (setting [11]) was no less than 200 µM each time. Besides, the values for the IC50 in data set [2] and in data set [3] were 97.2 nM and 0.878 nM, respectively. Besides, the “Ratio hCT/hAmylin binding” value in data set [3] (setting [12]), in data set [3] (setting [15]), in data set [3] (setting [13]), in data set [3] (setting [14]) and in data set [3] (setting [16]) was 12.5 in each case.
Consider `CC[C@H](C)[C@H](NC(=O)[C@H](C)NC(=O)CNC(=O)[C@H](Cc1ccccc1)NC(=O)[C@H](CC(N)=O)NC(=O)[C@@H]1CCCN1C(=O)[C@H](CO)NC(=O)[C@H](CO)NC(=O)[C@H](Cc1c[nH]cn1)NC(=O)[C@H](CCCNC(=N)N)NC(=O)[C@H](CC(C)C)NC(=O)[C@H](Cc1ccccc1)NC(=O)[C@H](CCC(=O)O)NC(=O)[C@H](C)NC(=O)[C@H](CC(C)C)NC(=O)[C@H](CCCNC(=N)N)NC(=O)[C@H](CCC(N)=O)NC(=O)[C@@H](NC(=O)[C@H](C)NC(=O)[C@@H]1CSSC[C@H](NC(=O)[C@@H](N)CCCCNC(=O)CC[C@H](NC(=O)CC[C@H](NC(=O)CCCCCCCCCCCCCCCCCCC(=O)O)C(=O)O)C(=O)O)C(=O)N[C@@H](CC(N)=O)C(=O)N[C@@H]([C@@H](C)O)C(=O)N[C@@H](C)C(=O)N[C@@H]([C@@H](C)O)C(=O)N1)[C@@H](C)O)C(=O)N1CCC[C@H]1C(=O)N[C@@H](CO)C(=O)N[C@@H](CO)C(=O)N[C@H](C(=O)N[C@@H](CC(N)=O)C(=O)N[C@H](C(=O)NCC(=O)N1CCC[C@H]1C(=O)N[C@@H](CC(N)=O)C(=O)N[C@H](C(=O)N[C@@H](Cc1ccccc1)C(N)=O)[C@@H](C)O)C(C)C)[C@@H](C)O` [Example 127] (H-K([γGlu-γGlu-C20 diacid])CNTATCATQRLAEFLRHSSPNFGAIPSSTNVGPNTF-NH2; disulfide 2-7 (inferred)), for which the IC50 in data set [2] came to 23.4 nM. Moreover, the “Ratio hCT/hAmylin binding” value in data set [3] (setting [12]) was 18.0; in data set [3] (setting [15]), 18.0; in data set [3] (Table 5b, selectivity, hCTR bind IC50 / hAmylin-R bind IC50) it was 18.0; in data set [3] (setting [13]), 18.0; in data set [3] (setting [14]), 18.0; in data set [3] (setting [16]), 18.0.
